# Data as given in US8735412B2, “Sulfoximine-substituted anilinopyrimidine derivatives as CDK inhibitors, the production thereof, and use as medicine” (Bayer Intellectual Property GmbH, priority 2008, dated 2014).
# Experiments:
# CDK1/CycB = target: T1, CDK1/CycB (Homo sapiens, UniProt P06493); experiment: CDK1/CycB kinase assay (Assay 1); assay type: biochemical; conditions: 0.5 μM ATP, histon IIIS substrate; read-out: CDK1/CycB (Assay 1) Concentration for 50% inhibition of enzyme activity, IC50
# T1 construct: purchased ProQinase GmbH, Freiburg; host or cells: baculovirus-infected insect cells (Sf9)
# Experimental: 10.1 Assay 1: CDK1/CycB Kinase Assay
# Recombinant CDK1 and CycB-GST fusion proteins, purified from baculovirus-infected insect cells (Sf9), were purchased from ProQinase GmbH, Freiburg. The histon IIIS used as kinase substrate is commercially available from the company Sigma.
# CDK1/CycB (200 ng/measuring point) was incubated for 10 min at 22° C. in the presence of various concentrations of test substances (0 μM, and within the range 0.01-100 μM) in assay buffer [50 mM Tris/HCl pH8.0, 10 mM MgCl2, 0.1 mM Na ortho-vanadate, 1.0 mM dithiothreitol, 0.5 μM adenosine triphosphate (ATP), 10 μg/measuring point histon IIIS, 0.2 μCi/measuring point ^33P-gamma ATP, 0.05% NP40, 1.25% dimethylsulfoxide]. The reaction was stopped by adding EDTA solution (250 mM, pH8.0, 15 μl/measuring point).
# (§1) From each reaction mixture, 15 μl was applied to P30 filter strips (from Wallac), and unincorporated ^33P-ATP was removed by washing the filter strips three times, for 10 min each time, in 0.5% phosphoric acid. After drying the filter strips for 1 hour at 70° C., the filter strips were covered with scintillator strips (MeltiLex™ A, from Wallac) and stoved for 1 hour at 90° C. The amount of incorporated ^33P (substrate phosphorylation) was determined by scintillation measurement in a gamma-radiation measuring instrument (Wallac). The measured data were standardized to 0% inhibition (enzyme reaction without inhibitor) and 100% inhibition (all assay components except enzyme). The IC50 values were determined by means of a 4-parameter fit using the company's own software.
# [1] = target: T2, VEGF receptor tyrosine kinase-2 (Homo sapiens, UniProt P35968); experiment: VEGF receptor-2 kinase assay (Assay 3); assay type: biochemical; conditions: 8 μM ATP, poly-(Glu4Tyr) substrate; read-out: VEGF-R2 (Assay 3) Concentration for 50% inhibition of enzyme activity, IC50
# T2 construct: GST; made in house; host or cells: baculovirus-infected insect cells (Sf9)
# Experimental: 10.3 Assay 3: VEGF Receptor-2 Kinase Assay
# Recombinant VEGF receptor tyrosine kinase-2 was purified as GST fusion protein from baculovirus-infected insect cells (Sf9). Poly-(Glu4Tyr), used as kinase substrate, was purchased from the company Sigma.
# VEGF receptor tyrosine kinase (90 ng/measuring point) was incubated for 10 min at 22° C. in the presence of various concentrations of test substances (0 μM, and within the range 0.001-30 μM) in 30 μl assay buffer [40 mM Tris/HCl pH5.5, 10 mM MgCl2, 1 mM MnCl2, 3 μM Na ortho-vanadate, 1.0 mM dithiothreitol, 8 μM adenosine triphosphate (ATP), 0.96 μg/measuring point poly-(Glu4Tyr), 0.2 μCi/measuring point ^33P-gamma ATP, 1.4% dimethylsulfoxide]. The reaction was stopped by adding EDTA solution (250 mM, pH8.0, 15 μl/measuring point).
# as §1
# [2] = test system: HeLa-MaTu cervical carcinoma cells; experiment: Proliferation assay (Assay 4), crystal violet staining; assay type: cell-based; conditions: Homo sapiens, 96 h, 4 days incubation; read-out: HeLa-MaTu (Assay 4) Concentration for 50% inhibition of cellular proliferation, IC50
# Experimental: 10.4 Assay 4: Proliferation Assay
# Cultivated human HeLa-MaTu cervical carcinoma cells (obtained from EPO-GmbH, Berlin) were plated at a density of 3000 cells/measuring point in a 96-well multititer is plate in 200 μl of growth medium (DMEM/HAMS F12, 2 mM L-glutamine, 10% fetal calf serum). After 24 hours the cells of one plate (zero-point plate) were stained with crystal violet (see below), whereas the medium of the other plates was replaced with fresh culture medium (200 μl), to which the test substances had been added at various concentrations (0 μM, and in the range 0.01-30 μM; the final concentration of the solvent dimethylsulfoxide was 0.5%). The cells were incubated for 4 days in the presence of the test substances. Cellular proliferation was determined by staining the cells with crystal violet: the cells were fixed by adding 20 μl/measuring point of an 11% glutaraldehyde solution for 15 min at room temperature. After washing the fixed cells with water three times, the plates were dried at room temperature. The cells were stained by adding 100 μl/measuring point of a 0.1% crystal violet solution (pH adjusted to pH3 by adding acetic acid). After washing the stained cells with water three times, the plates were dried at room temperature. The dye was dissolved by adding 100 μl/measuring point of a 10% acetic acid solution. The extinction was determined photometrically at a wavelength of 595 nm. The percentage change in cell growth was calculated by standardization of the measured values to the extinction values of the zero-point plate (=0%) and the extinction of the untreated (0 μM) cells (=100%). The measured data were standardized to 0% inhibition (cell proliferation without inhibitor) and 100% inhibition (zero-point plate). The IC50 values were determined by means of a 4-parameter fit using the company's own software.
# [3] = test system: HeLa-MaTu human cervical carcinoma xenograft; experiment: HeLa-MaTu cervical tumor xenograft model on NMRI nude mice; assay type: in vivo; conditions: oral, 2x daily on day 5, 6, 12, 13, 19, 20
# Experimental: HeLa-MaTu (EPO-GmbH, Berlin) human cervical carcinoma cells, which were grown in cell culture, were implanted subcutaneously in the flank of female NMRI nude mice. […] The study was terminated as soon as the tumors in one of the groups reached a size of approx. 150 mm^2.
# (§2) The growth-inhibiting effect of the compounds was tested in the HeLa-MaTu cervical tumor model as xenograft on NMRI nude mice. […] Treatment of the established tumors was begun on day 4 after inoculation of the tumors.
# as §2, §2
# (§3) The study was designed for determining the initial response of a human cervical carcinoma xenograft model to treatments with the 5-Br comparative substance V12. The growth-inhibiting effect of the compounds was tested in the HeLa-MaTu cervical tumor model as xenograft on NMRI nude mice. V12 was dissolved completely in the solubilizer 40% polyethylene glycol 400 (PEG 400)/60% water to a final concentration of 0.7 mg/ml (group 2), 0.85 mg/ml (group 3), or 1.0 mg/ml (group 4). Treatment of the established tumors was begun on day 4 after inoculation of the tumors.
# HeLa-MaTu (EPO-GmbH, Berlin) human cervical carcinoma cells, which were grown in cell culture, were implanted subcutaneously in the flank of female NMRI nude mice. […] The study was terminated as soon as the tumors in one of the groups reached a size of approx. 160 mm^2.
# (§4) The growth-inhibiting effect of the compounds was tested in the HeLa-MaTu cervical tumor model as xenograft on NMRI nude mice. […] Treatment of the established tumors was begun on day 5 after inoculation of the tumors.
# as §4, §4
# The following test groups were used: • Group 1: Control, treatment with solubilizer (40% PEG 400/60% water) • Group 2: Compound according to WO 2005/037800 prepared according to preparation V14 disclosed above • (6 mg/kg, oral, 2x daily on day 5, 6, 12, 13, 19, 20) • Group 3: Compound according to WO 2005/037800 prepared according to preparation V14 disclosed above • (8 mg/kg, oral, 2× daily on day 5, 6, 12, 13, 19, 20) • Group 4: Compound according to WO 2005/037800 prepared according to preparation V14 disclosed above • (10 mg/kg, oral, 2× daily on day 5, 6, 12, 13, 19, 20)
# as §3, with “substance V14.” for “substance V12.”, “mice. V14” for “mice. V12”, “of 0.6” for “of 0.7”, “2), 0.8” for “2), 0.85”, “day 5” for “day 4”
# T2 sequence (P35968 20-1356): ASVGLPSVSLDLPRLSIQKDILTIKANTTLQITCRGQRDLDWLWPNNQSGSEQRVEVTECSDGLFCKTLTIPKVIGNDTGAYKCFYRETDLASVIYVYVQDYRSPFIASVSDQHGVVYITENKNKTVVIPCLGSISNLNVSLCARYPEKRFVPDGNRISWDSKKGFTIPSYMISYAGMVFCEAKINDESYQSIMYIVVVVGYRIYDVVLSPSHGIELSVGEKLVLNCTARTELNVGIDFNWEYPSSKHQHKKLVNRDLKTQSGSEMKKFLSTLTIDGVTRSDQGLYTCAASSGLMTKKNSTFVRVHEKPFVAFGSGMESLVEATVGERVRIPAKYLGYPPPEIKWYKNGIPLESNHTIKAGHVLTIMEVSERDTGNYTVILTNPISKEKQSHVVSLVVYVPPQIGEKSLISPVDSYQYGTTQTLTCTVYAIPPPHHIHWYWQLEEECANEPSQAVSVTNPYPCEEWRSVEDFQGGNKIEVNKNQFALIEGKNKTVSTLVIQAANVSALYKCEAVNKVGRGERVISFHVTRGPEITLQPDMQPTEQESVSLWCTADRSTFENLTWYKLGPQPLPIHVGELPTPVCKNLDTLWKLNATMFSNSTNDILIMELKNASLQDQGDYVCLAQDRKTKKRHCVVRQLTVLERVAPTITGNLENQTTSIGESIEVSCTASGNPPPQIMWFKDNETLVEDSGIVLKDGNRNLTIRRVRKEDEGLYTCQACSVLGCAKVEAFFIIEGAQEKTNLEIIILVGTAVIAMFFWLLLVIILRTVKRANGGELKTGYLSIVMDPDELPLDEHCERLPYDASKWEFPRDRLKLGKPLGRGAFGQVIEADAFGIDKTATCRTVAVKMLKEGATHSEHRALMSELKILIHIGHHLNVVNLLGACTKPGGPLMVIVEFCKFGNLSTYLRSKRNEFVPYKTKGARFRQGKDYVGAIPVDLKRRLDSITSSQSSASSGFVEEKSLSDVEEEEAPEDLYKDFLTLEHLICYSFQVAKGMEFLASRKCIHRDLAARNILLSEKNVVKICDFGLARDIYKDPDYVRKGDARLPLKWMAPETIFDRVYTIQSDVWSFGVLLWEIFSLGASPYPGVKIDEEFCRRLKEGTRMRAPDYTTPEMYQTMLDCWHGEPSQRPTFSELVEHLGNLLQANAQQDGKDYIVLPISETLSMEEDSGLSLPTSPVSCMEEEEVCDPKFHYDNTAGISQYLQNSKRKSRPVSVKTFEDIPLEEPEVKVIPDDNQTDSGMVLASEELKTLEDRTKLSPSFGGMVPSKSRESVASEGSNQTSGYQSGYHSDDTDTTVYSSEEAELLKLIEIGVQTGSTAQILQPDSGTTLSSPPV
# T1 sequence (P06493 whole entry): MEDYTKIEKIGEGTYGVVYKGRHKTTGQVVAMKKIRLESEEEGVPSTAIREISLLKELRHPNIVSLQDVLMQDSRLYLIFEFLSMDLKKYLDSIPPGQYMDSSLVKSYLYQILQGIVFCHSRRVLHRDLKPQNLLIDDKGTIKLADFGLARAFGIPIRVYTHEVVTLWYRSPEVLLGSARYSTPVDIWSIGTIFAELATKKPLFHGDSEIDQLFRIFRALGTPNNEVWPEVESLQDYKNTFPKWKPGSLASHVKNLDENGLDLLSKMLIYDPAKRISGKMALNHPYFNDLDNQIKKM
# T1 sequence (P14635 whole entry partner): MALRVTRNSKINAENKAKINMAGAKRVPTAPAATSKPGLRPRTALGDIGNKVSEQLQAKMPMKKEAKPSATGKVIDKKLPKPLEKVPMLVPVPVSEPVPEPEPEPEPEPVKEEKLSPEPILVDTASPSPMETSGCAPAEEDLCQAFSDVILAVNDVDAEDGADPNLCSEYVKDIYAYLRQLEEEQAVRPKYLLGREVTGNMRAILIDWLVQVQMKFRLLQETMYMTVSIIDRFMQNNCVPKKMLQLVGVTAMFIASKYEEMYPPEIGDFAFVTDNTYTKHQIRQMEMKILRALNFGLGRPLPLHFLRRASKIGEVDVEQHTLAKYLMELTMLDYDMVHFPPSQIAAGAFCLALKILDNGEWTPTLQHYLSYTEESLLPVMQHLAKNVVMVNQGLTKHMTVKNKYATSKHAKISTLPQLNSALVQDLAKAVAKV
structure (smiles),measurement,setting,value
C[C@@H](O)[C@@H](C)Oc1nc(Nc2ccc(S(C)(=N)=O)cc2)ncc1Br (stereo partly shown) [Example V13],IC50,CDK1/CycB,3 nM
same,IC50,[1],140 nM
same,IC50,[2],9 nM
same,reduction of tumor weight at the end of the study to % of the control group,"[3]; 10 mg/kg (group 4), day 20",23%
same,tolerability of the cyclic treatment regimen,[3]; 10 mg/kg,well-tolerated
same,effect on tumor growth (in words),"[3]; 6, 8, 10 mg/kg",dose-dependent inhibition of tumor growth
same,response vs control in vivo at 10 mg/kg,"[3]; Mus musculus, 480 h, 10 mg/kg (group 4), day 20, read-out: treatment/control ratio T/C (tumor weight)",23%
